Experimental data as given in ChEMBL document CHEMBL2390819, “A convenient synthesis of GDP-D-rhamnose: the donor substrate for D-rhamnosyltransferase WbpZ from Pseudomonas aeruginosa PAO1” (Bioorg Med Chem Lett, 2013).
Calls of active or inactive are those of the source. No cut-off for these calls is given here.

Molecular target: T1, D-rhamnosyltransferase WbpZ (Pseudomonas aeruginosa (strain ATCC 15692 / PAO1 / 1C / PRS 101 / LMG12228)) (UniProt Q9HTC0)
T1 sequence (whole entry): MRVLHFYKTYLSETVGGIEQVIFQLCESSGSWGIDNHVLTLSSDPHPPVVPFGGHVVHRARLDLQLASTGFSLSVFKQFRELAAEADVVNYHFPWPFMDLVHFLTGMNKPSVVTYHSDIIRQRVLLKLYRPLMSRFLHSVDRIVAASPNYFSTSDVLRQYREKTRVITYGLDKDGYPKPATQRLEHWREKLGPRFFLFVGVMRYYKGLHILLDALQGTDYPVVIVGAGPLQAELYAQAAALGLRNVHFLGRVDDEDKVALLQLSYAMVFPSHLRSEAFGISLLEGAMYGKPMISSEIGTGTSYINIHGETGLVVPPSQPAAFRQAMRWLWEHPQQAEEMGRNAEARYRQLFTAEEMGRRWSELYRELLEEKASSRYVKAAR
Test: Activity at Pseudomonas aeruginosa PAO1 his-tagged D-rhamnosyltransferase WbpZ expressed in Escherichia coli BL21 at 0.25 mM after 1 hr by MALDI-MS analysis

Q: How did the Activity turn out when `C[C@H]1O[C@H](OP(=O)(O)OP(=O)(O)OC[C@H]2O[C@@H](n3cnc4c(=O)[nH]c(N)nc43)[C@H](O)[C@@H]2O)[C@@H](O)[C@@H](O)[C@@H]1O` was run?
A: Active
